Patent US5266599A, “Use of (+)-1-[(3,4,5-trimethoxy)-benzyloxymethyl]-1-phenyl-N,N-dimethyl-n-propy lamine to increase gastric discharge in a subject” (priority 1989, dated 1993)
Entries after “also recorded” stand apart in the source; their conditions may differ. Counter-ions that a name gives are not always drawn. Like-named read-outs stand apart in the source and are kept apart here.

Assays:
[1] = system: abdominal cramps caused by acetic acid; assay: Analgesic activity in vivo, abdominal cramps caused by intraperitoneal acetic acid (derived from Koster); parameters: species or system mice
mu receptor = assay: Binding affinity to opiate receptor mu (inhibition of binding of a specific radioactive ligand); conditions: for IC50: read-out: CI50, inhibition of 50% of the binding of a specific radioactive ligand, mu receptor
kappa receptor = biological target: T1, kappa receptor (Cavia porcellus, UniProt P41144); assay: biochemical; conditions: CI50, inhibition of 50% of the binding of a specific radioactive ligand
T1 construct: from tissue
T1 sequence (P41144 whole entry): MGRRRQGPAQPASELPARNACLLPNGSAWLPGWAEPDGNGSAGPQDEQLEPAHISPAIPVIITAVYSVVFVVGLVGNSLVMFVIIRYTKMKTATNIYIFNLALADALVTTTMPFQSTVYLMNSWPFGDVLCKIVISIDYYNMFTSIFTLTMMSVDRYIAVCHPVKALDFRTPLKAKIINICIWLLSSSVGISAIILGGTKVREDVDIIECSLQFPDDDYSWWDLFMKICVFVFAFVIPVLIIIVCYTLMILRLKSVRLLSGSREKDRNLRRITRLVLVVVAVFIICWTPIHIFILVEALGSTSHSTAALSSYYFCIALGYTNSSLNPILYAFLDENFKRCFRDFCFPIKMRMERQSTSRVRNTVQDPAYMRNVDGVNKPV

delta receptor = biological target: T2, delta receptor (Cavia porcellus, UniProt A0A286XTF2); assay: biochemical; conditions: CI50, inhibition of 50% of the binding of a specific radioactive ligand
T2 construct: from tissue
T2 sequence (A0A286XTF2 1-366): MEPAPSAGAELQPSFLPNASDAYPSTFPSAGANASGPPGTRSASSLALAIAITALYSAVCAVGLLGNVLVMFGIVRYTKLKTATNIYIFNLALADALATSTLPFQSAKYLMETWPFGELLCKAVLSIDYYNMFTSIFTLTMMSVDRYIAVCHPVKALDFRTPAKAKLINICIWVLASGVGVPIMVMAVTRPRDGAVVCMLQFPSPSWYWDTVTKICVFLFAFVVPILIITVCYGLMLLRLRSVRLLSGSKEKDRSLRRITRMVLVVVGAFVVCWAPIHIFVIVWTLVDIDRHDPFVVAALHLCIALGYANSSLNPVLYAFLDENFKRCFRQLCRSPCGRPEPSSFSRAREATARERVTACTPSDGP

[2] = system: opiate receptors of the gastric mucous membrane; assay: Effect of the products on the gastric evacuation of solids in dogs; format: in vivo; conditions: for Variation in % of gastric evacuation of solids: oral capsule, one hour after meal; for effect on gastric discharge of solids (in words): one hour after administration
Method: The principle of the test consists in measuring the gastric content of the animals one hour after eating a meal comprising 400 g of solid matter with 21.7% dry matter composed of:
and 20 g of sheeps liver containing radiolabelled cyanocobalamine. The meal is consumed within about 5 minutes by the animals. After one hour, the gastric content is collected by means of a small tube placed approximately 10 cm into the pyloris before the experiment.
The collected sample is weighed and homogenized. Its radioactivity is measured and the amount of the gastric discharge expressed in percentage is calculated according to the formula: [formula] in which: […]
In practice, each test is carried out on three dogs and consists in administering to them, 20 minutes before eating the meal described above, a capsule containing the test product at a dose of […] per kg animal weight or a capsule placebo which serves to determine the control phenomenon of the discharge on the animal. The 3 dogs receive each treatment twice in random order. […] The meal is presented and ingested 20 minutes after the capsule containing the test product has been administered. The evacuation values of the solid phases are measured as described before and compared using the test of Mann and Whitney (U test). The difference in comparison with the control values is considered significant when p is<or =0.05.
The effect of the test products is objectivised by the percentage variation calculated according to the relation: [formula]

[3] = system: opiate receptors of the kappa type in the gastric mucous membrane; conditions: dog, in vivo, cited from earlier work
gastric discharge = conditions: in vivo; cited from earlier work
[4] = Solubility, hygroscopicity and stability of the addition salt; conditions: D-(-) tartaric acid salt
duodenum of the rat = assay: tissue or blood; format: cell-based; conditions: for IC50: Rattus norvegicus
mice = assay: Acute toxicity, oral, in male mice; format: in vivo
Method: (§1) This toxicity has been studied orally in male mice. The test products have been administered at the rate of 2 ml of their aqueous solution per 100 g of animal weight. The animals are then observed for 3 hours after administration, then daily for fourteen days, when they are sacrificed and then an autopsy is carried out.
(§2) The LD50 (lethal doses which cause the death of 50% of the animals) have been calculated according to the method of Reed J. L. and Muench H. (Am. J. Hyg. 1939, 27, p. 493).

[5] = Acute toxicity, oral, in male mice; format: in vivo; conditions: mouse, in vivo, po, fourteen days
Method: as §1, §2

[6] = system: opiate receptors mu, delta and kappa; format: binding
[7] = in vitro, compared with the (+) enantiomer or other receptors
[8] = mu receptor, racemates uncorrected

SMILES: CCC(COCc1ccccc1)(c1ccccc1)N(C)C (racemic) [Ex. 3 of U.S. Pat. No. 4,301,163, (+/-)1-benzyloxymethyl-1-phenyl-N,N-dimethyl-n-propylamine]
- % analgesia ([1]; 50 mg/kg, orally, mice): 27.6%
- mu receptor affinity (in words) (mu receptor; [7]): just as, if not more active
- IC50 (mu receptor; [8]): 0.19 µM
- IC50 (kappa receptor): 0.56 µM
- IC50 (delta receptor): 14.7 µM

SMILES: CCC(COCc1ccc(OC)c(OC)c1)(c1ccccc1)N(C)C (racemic) [Ex. 1 of U.S. Pat. No. 4,301,163, (+/-)1-[(3,4-dimethoxy)benzyloxymethyl]-1-phenyl-N,N-dimethyl-n-propylamine]
- IC50 (mu receptor; [8]): 1.11 µM
- IC50 (kappa receptor): 1.11 µM
- IC50 (delta receptor): 7.8 µM

SMILES: CCC(COC(=O)c1cc(OC)c(OC)c(OC)c1)(c1ccccc1)N(C)C (racemic) [Trimebutine, (+/-)-2-dimethylamino-2-phenyl-n-butyl 3,4,5-trimethoxybenzoate]
- % analgesia ([1]; mouse, in vivo): 24.3%
- % analgesia, corrected for racemic compound (multiplied by two) ([1]; mouse, in vivo): 48.6%
- mu receptor affinity (in words) (mu receptor): just as, if not more active
- IC50 (mu receptor): 0.146 µM
- Variation in % of gastric evacuation of solids ([2]; 5 mg/kg): -4%
- IC50 (kappa receptor): 1.46 µM
- IC50 (delta receptor): 1.75 µM

SMILES: COc1ccc(C(C)(COCc2ccc(Cl)cc2)N(C)C)cc1 (racemic) [Ex. 13 of U.S. Pat. No. 4,301,163, (+/-) 1-(p-chlorobenzyloxymethyl)-1-(p-methoxyphenyl)N,N-dimethyl-n-ethylamine]
- % analgesia ([1]; 50 mg/kg, orally, mice): 27.9%
- mu receptor affinity (in words) (mu receptor; [7]): just as, if not more active
- IC50 (mu receptor; [8]): 0.25 µM
- IC50 (kappa receptor): 0.9 µM
- IC50 (delta receptor): 4.39 µM

SMILES: CN1c2ccccc2C(c2ccccc2F)=NCC1CNC(=O)c1ccsc1 (stereo not shown) [Tifluadom]
- gastric discharge after oral administration (in words) ([3]; po): increased gastric discharge; also recorded: modify the gastric discharge by their local action

SMILES: CCC(COCc1cc(OC)c(OC)c(OC)c1)(NC)c1ccccc1 (racemic) [Ex. 12 of U.S. Pat. No. 4,301,163]
- % analgesia ([1]; 50 mg/kg, orally, mice): 44.0%
- % analgesia, corrected for racemic compound (multiplied by two) ([1]; 50 mg/kg, orally, mice, racemate correction): 88.0%
- mu receptor affinity (in words) (mu receptor; [7]): just as, if not more active
- IC50 (mu receptor; [8]): 0.36 µM
- IC50 (kappa receptor): 2.28 µM
- IC50 (delta receptor): 2.25 µM

SMILES: CCN(CC)CCNC(=O)c1cc(Cl)c(N)cc1OC [metoclopramide]
- gastric discharge (in words) (gastric discharge): possesses this property

SMILES: CCC(COCc1cc(OC)c(OC)c(OC)c1)(c1ccccc1)N(C)C (single isomer, unassigned) [D-(-) tartaric acid addition salt, (+) 1-[(3,4,5-trimethoxy)-benzyloxymethyl]-1-phenyl-N-N-dimethyl-n-propylamineD-(-)-tartrate]
- hygroscopicity (in words) [4]: without being hygroscopic
- physico-chemical stability (in words) [4]: physico-chemical stability necessary for its use
- solubility in water (in words) [4]: soluble in water

SMILES: COc1ccc(Cc2nccc3cc(OC)c(OC)cc23)cc1OC [Papaverine]
- IC50 (duodenum of the rat; read-out: IC50, inhibition of 50% of the amplitude of contractions): 27.4 µM

SMILES: CN1CC[C@]23c4c5ccc(O)c4O[C@H]2[C@@H](O)C=C[C@H]3[C@H]1C5 [Morphine]
- antispasmodic activity (in words) (duodenum of the rat; barium chloride, duodenum of the rat, in vitro): inactive; also recorded: inactive at a concentration of more than 5 times greater than that of the product of the invention

SMILES: CCC(COCc1cc(OC)c(OC)c(OC)c1)(c1ccccc1)N(C)C (single isomer, unassigned; (+)) [(+) Enantiomer, (+) 1-[(3,4,5-trimethoxy)benzyloxymethyl]-1-phenyl-N,N-dimethyl-n-propylamine]
- antispasmodic activity (in words) (duodenum of the rat): activity slightly above that of papaverine; also recorded: possesses an antispasmodic activity
- IC50 (duodenum of the rat; read-out: molar concentration inhibiting 50% of the amplitude of spasms caused by barium chloride): 17 µM
- toxicity relative to the levorotatory antipode (in words) (mice): about half as toxic
- LD50 at 336 h [5]: 407 mg/kg
- % analgesia ([1]; mouse, in vivo): 17.6%
- times less analgesic than the compound of Example 12 of the U.S. Patent ([1]; mouse, in vivo): ~5 times
- times less analgesic than the trimebutine ([1]; mouse, in vivo): ~3 times
- analgesic effect (in words) ([1]; mouse, in vivo, po): virtually without any analgesic effect; also recorded: does not have "in vivo", as one would expect it, a central analgesic activity; also recorded: very little analgesic effect
- IC50 (mu receptor; [8]): 0.196 µM
- Variation in % of gastric evacuation of solids, with MR 2266 ([2]; 0.25 mg/kg oral + MR 2266 0.1 mg per kg intravenous): +14%
- Variation in % of gastric evacuation of solids, with naloxone ([2]; 0.25 mg/kg oral + naloxone 0.1 mg per kg intravenous): +5%
- Variation in % of gastric evacuation of solids ([2]; 0.25 mg/kg): +110%
- effect on gastric discharge of solids (in words) ([2]; listed as compound of the invention): increased discharge of solids in dogs
- effect on gastric discharge of solids (in words) ([2]; listed as product of the invention): doubles the gastric evacuation of the solids; also recorded: clearly shows an activity which encourages gastric discharge of solids in dogs
- receptor binding affinity to mu, delta and kappa (in words) [6]: shows a receptor binding affinity to the receptors mu, delta and kappa; also recorded: shows an "in vitro" affinity with the opiate receptors mu, delta and kappa; also recorded: showing an affinity to the three receptors studied, with a non-negligible intensity
- IC50 (kappa receptor): 0.232 µM
- IC50 (delta receptor): 0.54 µM

SMILES: CCC1C2Cc3ccc(O)cc3C1(CC)CCN2Cc1ccoc1 (single isomer, unassigned) [MR 2266]
- inhibition of the gastric discharge effect of the product of the invention by the antagonist (in words) ([2]; intravenous antagonist): inhibited
- inhibition of the gastric discharge effect of kappa agonists (in words) [3]: inhibited

SMILES: CCC(COCc1cc(OC)c(OC)c(OC)c1)(c1ccccc1)N(C)C (single isomer, unassigned; (-)) [(-) Enantiomer, (-) 1-[(3,4,5-trimethoxy)benzyloxymethyl]-1-phenyl-N,N-dimethyl-n-propylamine]
- LD50 (mice; fourteen days, 20160 min): 255 mg/kg
- IC50 (mu receptor; [8]): 0.58 µM
- Variation in % of gastric evacuation of solids ([2]; 0.25 mg/kg): +26%
- effect on gastric discharge of solids (in words) ([2]; listed as levorotatory enantiomer): four times less significant
- IC50 (kappa receptor): 2.63 µM
- IC50 (delta receptor): 12.3 µM
